One test deals with T1, PTP-1b (Homo sapiens, UniProt P18031).
T1 construct: purchased Bioneer, Korea
T1 sequence (P18031 1-435): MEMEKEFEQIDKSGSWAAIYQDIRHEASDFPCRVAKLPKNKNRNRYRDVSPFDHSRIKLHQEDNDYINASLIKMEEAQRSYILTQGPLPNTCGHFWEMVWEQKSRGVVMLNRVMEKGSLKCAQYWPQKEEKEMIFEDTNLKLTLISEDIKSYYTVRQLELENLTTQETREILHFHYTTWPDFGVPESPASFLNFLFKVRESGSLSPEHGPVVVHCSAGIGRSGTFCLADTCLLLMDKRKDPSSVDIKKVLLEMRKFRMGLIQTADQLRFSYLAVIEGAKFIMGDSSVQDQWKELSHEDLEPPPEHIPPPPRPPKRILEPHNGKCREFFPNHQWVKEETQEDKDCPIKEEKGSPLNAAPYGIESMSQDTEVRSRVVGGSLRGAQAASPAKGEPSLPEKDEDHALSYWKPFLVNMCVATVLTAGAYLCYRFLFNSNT
Kind of test: Selectivity for protein tyrosine phosphatases: PTP-1b. It counts as biochemical. To be noted: at a concentration of 0.2 µM (IC50); read-out: inhibition rate against PTP-1b. How it is done: In order to examine the selectivity of sodium lobarate for protein tyrosine phosphatases, the inhibitory activities of sodium lobarate against PTP-1b, PTPN2, PTPN5, PTPN6, PTPN7 and PTPN13 were examined by spectroscopically measuring the activities of the enzymes.
Specifically, to 0.5 mg/Ml of PTP-1b, PTPN2, PTPN5, PTPN6, PTPN7 or PTPN13 (Bioneer, Korea) in protein tyrosine phosphatase buffer (20 mM Tris-Hcl, pH 8.0, 0.75 mM NaCl, 0.5 mM EDTA, 5 mM β-mercaptoethanol, 50% glycerol), 0, 50, 100 or 200 nM sodium lobarate and the substrate [pTyr1146] insulin receptor (1142-1153, Sigma, USA) were added. Then, each of the mixtures was allowed to react at room temperature for 10-30 minutes, and then malachite green-molybdate dye solution (Sigma, USA) was added thereto and reacted at room temperature for 10 minutes. After completion of the reaction with the substrate, the absorbance at 620 nm was measured.
In order to examine the selectivity of Lobarin for protein tyrosine phosphatases, the inhibitory activities of Lobarin against PTP-1b, PTPN2, PTPN5, PTPN6, PTPN7 and PTPN13 were examined by spectroscopically measuring the activities of the enzymes.
Specifically, to 0.5 mg/Ml of PTP-1b, PTPN2, PTPN5, PTPN6, PTPN7 or PTPN13 (Bioneer, Korea) in protein tyrosine phosphatase buffer (20 mM Tris-Hcl, pH 8.0, 0.75 mM NaCl, 0.5 mM EDTA, 5 mM β-mercaptoethanol, 50% glycerol), 0, 50, 100 or 200 nM Lobarin and the substrate [pTyr1146] insulin receptor (1142-1153, Sigma, USA) were added. […] After completion of the reaction with the substrate, the absorbance at 620 nm was measured.
In order to examine the selectivity of Lobarstin for protein tyrosine phosphatases, the inhibitory activities of Lobarstin against PTP-1b, PTPN2, PTPN5, PTPN6, PTPN7 and PTPN13 were examined by spectroscopically measuring the activities of the enzymes. […] After completion of the reaction with the substrate, the absorbance at 620 nm was measured.

The subject of test [1] is db/db mice (type 2 diabetic model animals). Kind of test: Change in blood glucose level after intraperitoneal administration. It counts as in vivo. As to conditions: 10 mg/kg intraperitoneally daily; for increase in the blood glucose level compared with control group: days 0-21; for average blood glucose level: db/db mice. How it is done: Based on pre-tests, effectiveness tests and toxicity tests for sodium lobarate, dose (expressed as test compound amount (mg)/test animal's weight (kg)) was determined. To 7-week-old male db/db mice (type 2 diabetic model animals, C57/BLKS/J-db/db, the Korea Research Institute of Bioscience and Biotechnology), 200 μl of PBS for a control group and 10 mg/kg of sodium lobarate (PTP-1b activity inhibitory compound) for a test group was administered, respectively, intraperitoneally daily, and the blood glucose levels of the animals were measured twice a week.
Specifically, sodium lobarate (PTP-1b activity inhibitory compound) was administered by intraperitoneal injection to 7-week-old male db/db mice (type 2 diabetic model animals, C57/BLKS/J-db/db, the Korea Research Institute of Bioscience and Biotechnology), and the change in the blood glucose level of the animals was measured.
Based on pre-tests, effectiveness tests and toxicity tests for Lobarin, dose (expressed as test compound amount (mg)/test animal's weight (kg)) was determined. To 7-week-old male db/db mice (type 2 diabetic model animals, C57/BLKS/J-db/db, the Korea Research Institute of Bioscience and Biotechnology), 200 μl of PBS for a control group and 10 mg/kg of Lobarin for a test group was administered, respectively, intraperitoneally daily, and the blood glucose levels of the animals were measured twice a week.
Specifically, Lobarin was administered by intraperitoneal injection to 7-week-old male db/db mice (type 2 diabetic model animals, C57/BLKS/J-db/db, the Korea Research Institute of Bioscience and Biotechnology), and the change in blood glucose level of the animals was measured.
Based on pre-tests, effectiveness tests and toxicity tests for Lobarstin, dose (expressed as test compound amount (mg)/test animal's weight (kg)) was determined. To 7-week-old male db/db mice (type 2 diabetic model animals, C57/BLKS/J-db/db, the Korea Research Institute of Bioscience and Biotechnology), 200 μl of PBS for a control group and 10 mg/kg of Lobarstin for a test group was administered, respectively, intraperitoneally daily, and the blood glucose levels of the animals were measured twice a week.
Specifically, Lobarstin was administered by intraperitoneal injection to 7-week-old male db/db mice (type 2 diabetic model animals, C57/BLKS/J-db/db, the Korea Research Institute of Bioscience and Biotechnology), and the change in blood glucose level of the animals was measured.

Broadly, the inhibition is how much of the control response was suppressed.

For `CCC/C=C1/OC(=O)c2c(Oc3c(O)cc(O)c(C(=O)O)c3CCCCC)cc(OC)cc21` [Lobarstin], the inhibition at 0.2 µM at PTP-1b worked out at 48%. Besides, the “increase in the blood glucose level compared with control group” value (from here on “increase in the blood glucose level”) in test [1] is reported as “less than that in the control group”. In addition, the “average blood glucose level” value in test [1] (day 0) turned out to be 299 mg/dL; in test [1] (day 7), 259 mg/dL; in test [1] (day 14) it was 267 mg/dL; in test [1] (day 21) it was 242 mg/dL.
`CCCCCc1c(Oc2cc(OC)cc3c2C(=O)OC3(O)CCCC)c(O)cc(O)c1C(=O)O` (stereo not drawn) [Lobarin]: on PTP-1b, the inhibition at 0.2 µM turned out to be 52.2%. Besides, the “increase in the blood glucose level” value in test [1] was “less than that in the control group”. Besides, the “average blood glucose level” value in test [1] (day 0) was 267 mg/dL; in test [1] (day 3), 278 mg/dL; in test [1] (day 7), 298 mg/dL; in test [1] (day 10), 315 mg/dL; in test [1] (day 14) it was 352 mg/dL; in test [1] (day 17), 379 mg/dL. Besides, the “average blood glucose level” value in test [1] (day 21) is listed as 425 mg/dL.
As to `CCCCCc1c2c(cc(O)c1C(=O)[O-])OC(=O)c1c(cc(OC)cc1C(=O)CCCC)O2.[Na+]` [sodium lobarate], on PTP-1b, the inhibition at 0.2 µM stood at 50%. Moreover, the “increase in the blood glucose level” value in test [1] is on record as “less than that in the control group”. Moreover, the “average blood glucose level” value in test [1] (day 0) worked out at 267 mg/dL; in test [1] (day 3), 276 mg/dL; in test [1] (day 7) it was 378 mg/dL; in test [1] (day 10), 378 mg/dL; in test [1] (day 14), 407 mg/dL; in test [1] (day 17), 415 mg/dL. In addition, the “average blood glucose level” value in test [1] (day 21) is recorded as 459 mg/dL.

The values are drawn from US8846750B2, “Pharmaceutical and food compositions for preventing or treating diabetes or obesity” (Korea Ocean Research and Development Institute, priority 2010, dated 2014).
